Measurements: patent US20230085307A1, “PYRIDAZINONE COMPOUND AND HERBICIDE” (NISSAN CHEMICAL CORPORATION, priority 2019, published 2023)

Tests used:
Italian ryegrass [1] = assay: Test Example 5: herbicidal effect by foliage application, plastic box (Table 20, symbol K); format: in vivo, Italian ryegrass (Lolium multiflorum); conditions: foliage application, 320 g/ha, three weeks after application
Outline: (§1)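 Sow seeds spot-wise in sterilized diluvial soil; cover with ~1.5 cm soil. Grow 14 days in greenhouse, 25° C. to 30° C. Spray foliage with emulsion diluted to predetermined amount. Rate effect after 3 weeks.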

Chinese sprangletop = assay: Test Example 3: herbicidal effect by foliage application, Wagner pot (Table 18, symbol D); format: in vivo, chinese sprangletop (Leptochloa chinensis); conditions: 320 g/ha
Outline: (§2)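 Plants were sown in alluvial soil held under 0.1–0.5 cm standing water and grown 14 days in a greenhouse at 25–30 °C. An emulsifiable formulation, water-diluted to the set dose, was then sprayed onto the foliage, and effects were scored three weeks later using previously defined criteria.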

barnyard grass [2] = assay: Test Example 5: herbicidal effect by foliage application, plastic box (Table 20, symbol H); format: in vivo, barnyard grass (Echinochloa crus-galli); conditions: foliage application, 320 g/ha, three weeks after application
Outline: as §1

Japanese bulrush = assay: Test Example 1: herbicidal activity, application before weed generation under submerged conditions (Table 16, symbol B); format: in vivo, Japanese bulrush (Schoenoplectus juncoides); conditions: 320 g/ha applied herbicide
Outline: (§3)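 Alluvial soil was flooded to 4 cm depth, weed seeds were sown mixed and 2.5-leaf rice seedlings were transplanted. On sowing day, the compound's emulsion, diluted in water to a set dose, was applied to the water surface. Plants grew at 25–30 °C and were scored 0–5 after three weeks.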

wild oat [3] = assay: Test Example 5: herbicidal effect by foliage application, plastic box (Table 20, symbol I); format: in vivo, wild oat (Avena fatua); conditions: foliage application, 320 g/ha, three weeks after application
Outline: as §1

wild oat [4] = assay: Test Example 4: herbicidal effect by soil treatment (Table 19, symbol I); format: in vivo, wild oat (Avena fatua); conditions: amount of applied herbicide 320 g/ha
Outline: (§4)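 Soil-surface application: an emulsion agent diluted with water to the predetermined dose is sprayed uniformly over seeds lying under roughly 1.5 cm of sterilized diluvial soil. Boxes stay in a greenhouse at 25° C. to 30° C. Three weeks later, each species is graded on previously defined criteria.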

velvetleaf [5] = assay: Test Example 5: herbicidal effect by foliage application, plastic box (Table 20, symbol M); format: in vivo, velvetleaf (Abutilon theophrasti); conditions: foliage application, 320 g/ha, three weeks after application
Outline: as §1

chickweed [6] = assay: Test Example 5: herbicidal effect by foliage application, plastic box (Table 20, symbol P); format: in vivo, common chickweed (Stellaria media); conditions: foliage application, 320 g/ha, three weeks after application
Outline: as §1

false cleavers [7] = assay: Test Example 4: herbicidal effect by soil treatment (Table 19, symbol Q); format: in vivo, false cleavers (Galium spurium); conditions: amount of applied herbicide 320 g/ha
Outline: as §4

redroot pigweed [8] = assay: Test Example 5: herbicidal effect by foliage application, plastic box (Table 20, symbol N); format: in vivo, redroot pigweed (Amaranthus retroflexus); conditions: foliage application, 320 g/ha, three weeks after application
Outline: as §1

green foxtail [9] = assay: Test Example 5: herbicidal effect by foliage application, plastic box (Table 20, symbol G); format: in vivo, green foxtail (Setaria viridis); conditions: foliage application, 320 g/ha, three weeks after application
Outline: as §1

windgrass [10] = assay: Test Example 5: herbicidal effect by foliage application, plastic box (Table 20, symbol L); format: in vivo, windgrass (Apera spica-venti); conditions: foliage application, 320 g/ha, three weeks after application
Outline: as §1

lambsquarters [11] = assay: Test Example 4: herbicidal effect by soil treatment (Table 19, symbol O); format: in vivo, lambsquarters (Chenopodium album); conditions: amount of applied herbicide 320 g/ha
Outline: as §4

barnyard grass [12] = assay: Test Example 4: herbicidal effect by soil treatment (Table 19, symbol H); format: in vivo, barnyard grass (Echinochloa crus-galli); conditions: amount of applied herbicide 320 g/ha
Outline: as §4

false cleavers [13] = assay: Test Example 5: herbicidal effect by foliage application, plastic box (Table 20, symbol Q); format: in vivo, false cleavers (Galium spurium); conditions: foliage application, 320 g/ha, three weeks after application
Outline: as §1

persian speedwell [14] = assay: Test Example 5: herbicidal effect by foliage application, plastic box (Table 20, symbol R); format: in vivo, Persian speedwell (Veronica persica); conditions: foliage application, 320 g/ha, three weeks after application
Outline: as §1

green foxtail [15] = assay: Test Example 4: herbicidal effect by soil treatment (Table 19, symbol G); format: in vivo, green foxtail (Setaria viridis); conditions: amount of applied herbicide 320 g/ha
Outline: as §4

windgrass [16] = assay: Test Example 4: herbicidal effect by soil treatment (Table 19, symbol L); format: in vivo, windgrass (Apera spica-venti); conditions: amount of applied herbicide 320 g/ha
Outline: as §4

oval-leafed pondweed = assay: Test Example 1: herbicidal activity, application before weed generation under submerged conditions (Table 16, symbol C); format: in vivo, oval-leafed pondweed (Monochoria vaginalis); conditions: 320 g/ha applied herbicide
Outline: as §3

blackgrass [17] = assay: Test Example 4: herbicidal effect by soil treatment (Table 19, symbol J); format: in vivo, blackgrass (Alopecurus myosuroides); conditions: amount of applied herbicide 320 g/ha
Outline: as §4

southern crabgrass [18] = assay: Test Example 4: herbicidal effect by soil treatment (Table 19, symbol F); format: in vivo, southern crabgrass (Digitaria ciliaris); conditions: amount of applied herbicide 320 g/ha
Outline: as §4

blackgrass [19] = assay: Test Example 5: herbicidal effect by foliage application, plastic box (Table 20, symbol J); format: in vivo, blackgrass (Alopecurus myosuroides); conditions: foliage application, 320 g/ha, three weeks after application
Outline: as §1

redroot pigweed [20] = assay: Test Example 4: herbicidal effect by soil treatment (Table 19, symbol N); format: in vivo, redroot pigweed (Amaranthus retroflexus); conditions: amount of applied herbicide 320 g/ha
Outline: as §4

barnyard grass [21] = assay: Test Example 3: herbicidal effect by foliage application, Wagner pot (Table 18, symbol H); format: in vivo, barnyard grass (Echinochloa crus-galli); conditions: 320 g/ha
Outline: as §2

velvetleaf [22] = assay: Test Example 4: herbicidal effect by soil treatment (Table 19, symbol M); format: in vivo, velvetleaf (Abutilon theophrasti); conditions: amount of applied herbicide 320 g/ha
Outline: as §4

Italian ryegrass [23] = assay: Test Example 4: herbicidal effect by soil treatment (Table 19, symbol K); format: in vivo, Italian ryegrass (Lolium multiflorum); conditions: amount of applied herbicide 320 g/ha
Outline: as §4

rice flat sedge = assay: Test Example 3: herbicidal effect by foliage application, Wagner pot (Table 18, symbol E); format: in vivo, rice flat sedge (Cyperus iria); conditions: 320 g/ha
Outline: as §2

chickweed [24] = assay: Test Example 4: herbicidal effect by soil treatment (Table 19, symbol P); format: in vivo, common chickweed (Stellaria media); conditions: amount of applied herbicide 320 g/ha
Outline: as §4

southern crabgrass [25] = assay: Test Example 5: herbicidal effect by foliage application, plastic box (Table 20, symbol F); format: in vivo, southern crabgrass (Digitaria ciliaris); conditions: foliage application, 320 g/ha, three weeks after application
Outline: as §1

persian speedwell [26] = assay: Test Example 4: herbicidal effect by soil treatment (Table 19, symbol R); format: in vivo, Persian speedwell (Veronica persica); conditions: amount of applied herbicide 320 g/ha
Outline: as §4

late watergrass = assay: Test Example 1: herbicidal activity, application before weed generation under submerged conditions (Table 16, symbol A); format: in vivo, late watergrass (Echinochloa oryzicola); conditions: 320 g/ha applied herbicide
Outline: as §3

lambsquarters [27] = assay: Test Example 5: herbicidal effect by foliage application, plastic box (Table 20, symbol O); format: in vivo, lambsquarters (Chenopodium album); conditions: foliage application, 320 g/ha, three weeks after application
Outline: as §1

Question: `COc1ccc(F)c(-c2sc3ccccc3c2-c2c(O)c(C)nn(C)c2=O)c1` [1-053] was tested. Which “herbicidal effect grade, K: Italian ryegrass” value (Italian ryegrass [1]) did it give?
Answer: 3 (Herbicidal rate of 40% or more and less than 70%)

Question: And the “herbicidal effect on D (Chinese sprangletop), rating 0-5” value (Chinese sprangletop)?
Answer: 0 (Herbicidal rate of 5% or less (almost no effect))

Question: And the “herbicidal effect grade, H: barnyard grass” value (barnyard grass [2])?
Answer: 3 (Herbicidal rate of 40% or more and less than 70%)

Question: And the “Herbicidal effect on B: Japanese bulrush (grade 0-5)” value (Japanese bulrush)?
Answer: 2 (Herbicidal rate of 20% or more and less than 40%)

Question: What about the “herbicidal effect grade, I: wild oat” value (wild oat [3]) of the same compound?
Answer: 3 (Herbicidal rate of 40% or more and less than 70%)

Question: What about the “herbicidal effect rating, I: wild oat” value (wild oat [4]) of the same compound?
Answer: 0 (Herbicidal rate of 5% or less (almost no effect))

Question: And the “herbicidal effect grade, M: velvetleaf” value (velvetleaf [5])?
Answer: 5 (Herbicidal rate of 90% or more (almost completely withered))

Question: What about the “herbicidal effect grade, P: chickweed” value (chickweed [6]) of the same compound?
Answer: 5 (Herbicidal rate of 90% or more (almost completely withered))

Question: And the “herbicidal effect rating, Q: false cleavers” value (false cleavers [7])?
Answer: 0 (Herbicidal rate of 5% or less (almost no effect))

Question: What about the “herbicidal effect grade, N: redroot pigweed” value (redroot pigweed [8]) of the same compound?
Answer: 4 (Herbicidal rate of 70% or more and less than 90%)

Question: What about the “herbicidal effect grade, G: green foxtail” value (green foxtail [9]) of the same compound?
Answer: 4 (Herbicidal rate of 70% or more and less than 90%)

Question: And the “herbicidal effect grade, L: windgrass” value (windgrass [10])?
Answer: 3 (Herbicidal rate of 40% or more and less than 70%)

Question: And the “herbicidal effect rating, O: lambsquarters” value (lambsquarters [11])?
Answer: 5 (Herbicidal rate of 90% or more (almost completely withered))

Question: And the “herbicidal effect rating, H: barnyard grass” value (barnyard grass [12])?
Answer: 1 (Herbicidal rate of 5% or more and less than 20%)

Question: What about the “herbicidal effect grade, Q: false cleavers” value (false cleavers [13]) of the same compound?
Answer: 3 (Herbicidal rate of 40% or more and less than 70%)

Question: And the “herbicidal effect grade, R: persian speedwell” value (persian speedwell [14])?
Answer: 5 (Herbicidal rate of 90% or more (almost completely withered))

Question: What about the “herbicidal effect rating, G: green foxtail” value (green foxtail [15]) of the same compound?
Answer: 3 (Herbicidal rate of 40% or more and less than 70%)

Question: And the “herbicidal effect rating, L: windgrass” value (windgrass [16])?
Answer: 0 (Herbicidal rate of 5% or less (almost no effect))

Question: And the “Herbicidal effect on C: oval-leafed pondweed (grade 0-5)” value (oval-leafed pondweed)?
Answer: 1 (Herbicidal rate of 5% or more and less than 20%)

Question: And the “herbicidal effect rating, J: blackgrass” value (blackgrass [17])?
Answer: 0 (Herbicidal rate of 5% or less (almost no effect))

Question: What about the “herbicidal effect rating, F: southern crabgrass” value (southern crabgrass [18]) of the same compound?
Answer: 2 (Herbicidal rate of 20% or more and less than 40%)

Question: What about the “herbicidal effect grade, J: blackgrass” value (blackgrass [19]) of the same compound?
Answer: 2 (Herbicidal rate of 20% or more and less than 40%)

Question: And the “herbicidal effect rating, N: redroot pigweed” value (redroot pigweed [20])?
Answer: 4 (Herbicidal rate of 70% or more and less than 90%)

Question: What about the “herbicidal effect on H (barnyard grass), rating 0-5” value (barnyard grass [21]) of the same compound?
Answer: 3 (Herbicidal rate of 40% or more and less than 70%)

Question: And the “herbicidal effect rating, M: velvetleaf” value (velvetleaf [22])?
Answer: 2 (Herbicidal rate of 20% or more and less than 40%)

Question: And the “herbicidal effect rating, K: Italian ryegrass” value (Italian ryegrass [23])?
Answer: 3 (Herbicidal rate of 40% or more and less than 70%)

Question: What about the “herbicidal effect on E (rice flat sedge), rating 0-5” value (rice flat sedge) of the same compound?
Answer: 1 (Herbicidal rate of 5% or more and less than 20%)

Question: What about the “herbicidal effect rating, P: chickweed” value (chickweed [24]) of the same compound?
Answer: 5 (Herbicidal rate of 90% or more (almost completely withered))

Question: And the “herbicidal effect grade, F: southern crabgrass” value (southern crabgrass [25])?
Answer: 3 (Herbicidal rate of 40% or more and less than 70%)

Question: And the “herbicidal effect rating, R: persian speedwell” value (persian speedwell [26])?
Answer: 3 (Herbicidal rate of 40% or more and less than 70%)

Question: What about the “Herbicidal effect on A: late watergrass (grade 0-5)” value (late watergrass) of the same compound?
Answer: 3 (Herbicidal rate of 40% or more and less than 70%)

Question: What about the “herbicidal effect grade, O: lambsquarters” value (lambsquarters [27]) of the same compound?
Answer: 4 (Herbicidal rate of 70% or more and less than 90%)
